What was measured:
U87 gliomas = assay: NO distribution in U87 gliomas by DAF-2T fluorescence (MPLSM); assay type: in vivo, mice; conditions: animals treated with L-NMMA compared to D-NMMA
Procedure: FIGS. 3A-B show microfluorographs depicting NO distribution in U87 gliomas grown in the cranial window in Rag-1^−/−. NO production was visualized by means of DAF-2T fluorescence 0, 20, 40 and 60 min after DAF-2 (0.5 mg/body) injection. Left column, micro-angiography with tetramethylrhodamine-dextran (2000 kDa). Middle column, representative DAF-2T microfluorography captured 60 min after the loading of DAF-2 in tumors. Right column, pseudocolor representation of DAF-2T microfluorographs. […] Bars indicate 100 μm. (A) NO distribution in parental U87MG (top row) or nNOS shRNA58-transfected-U87 (bottom row) tumors. […]
(§1) Vascular parameters such as functional vessel density (the total length of perfused microvessels per unit area) and vessel diameter were analyzed by tracing each vessel segment using NIH image 1.63 as described elsewhere (Kashiwagi, S., et al. 2005 J. Clin. Invest. 115, 1816-1827). Tissue distribution of NO was visualized using MPLSM and the NO-sensitive fluorescence probe 4,5-diaminofluorescein (DAF-2) (0.5 mg i.v. Daiichi Pure Chemicals Co. Ltd) as described previously (Kashiwagi, S., et al. 2005 J. Clin. Invest. 115, 1816-1827). NO converts DAF-2 to 4,5-diaminofluorescein triazolium (DAF-2T) increasing fluorescence by a factor of 200. The DAF-2 associated fluorescence images were captured 60 min after i.v. injection. […]

U87MG tumors = assay: Vessel morphology of U87 tumors in the cranial window by intravital microscopy; assay type: in vivo, mice; conditions: L-NMMA 7 mg/day by osmotic pump vs D-NMMA, SCID mice
Procedure: (§2) Recombination activating gene 1 (Rag-1^−/−) mice backcrossed to C57BL/6 background or severe combined immunodeficiency (SCID) mice, bred and maintained in an gnotobiotic animal facility, were used. To obtain source tumor tissue, U87 tumor cells in culture (1×10^6 cells) were injected subcutaneously into Rag-1^−/− or SCID mice matching the recipient mice. When the tumor reached about 8 mm in diameter, it was excised after euthanasia and a small piece (about 1 mm^3) of viable tumor tissue was implanted into a cranial window or subcutaneously into the calf area of the right hindlegs of the mice as previously described (Kashiwagi, S., et al. 2005 J. Clin. Invest. 115, 1816-1827; Kozin, S. V., et al. 2001 Cancer Research 61, 39-44). All animal procedures were carried oat following the Public Health Service Policy on Humane Care of Laboratory Animals and approved by the Institutional Animal Care and Use Committee of Massachusetts General Hospital. […]
Angiogenesis and vessel morphology were determined in U87 and GL261 tumors grown in the cranial windows by intravital microscopy using multiphoton laserscanning microscopy (MPLSM) or single photon fluorescence microscopy (SPFM) when tumors reached about 7 mm^2. […] Using MPLSM, five locations with 200-μm thick imaging stack were recorded for each tumor. […]
as §1

10T1/2 cells = assay: Transwell migration of 10T1/2 cells toward HUVECs; assay type: cell-based
Procedure: FIGS. 13A-C show the role of the NO-sGC-cGMP pathway in perivascular cell recruitment and migration. (A) In bar graph form, cGMP production in cultured 10T1/2 cells in response to NO donor or PDE5 inhibitor. (B) In bar graph form, the migration of 10T1/2 cells in a transwell assay. 10T1/2 cell migration was assessed using Falcon HTS FluoroBlok inserts with 1 μm pores. GFP-expressing 10T1/2 cells were inoculated in the inserts, and HUVECs were inoculated in the outer well. Percent area of transwell filter covered by migrated 10T1/2 cells was determined. Medium only indicates no HUVECs in the outer well. ODQ, T-1032, Sildenafil, or Sildenafil+L-NMMA were added to the medium. *P<0.05 vs. control (HUVEC). (C) Images for transmigrated GFP-10T1/2 cells at the back side of the Fluoroblock insert after 10 hours with control vs. T-1032 treatment.
FIGS. 14A-B show the effect of PI3K inhibition on transwell migration of 10T1/2 cells toward HUVECs. 10T1/2 cell migration was assessed using Falcon HTS FluoroBlock inserts with 1 μm pores. GFP-expressing 10T1/2 cells were inoculated in the inserts and human umbilical vein endothelial cells (HUVECs) were inoculated in the outer well. (A) Images for transmigrated GFP-10T1/2 cells at the back side of the FluoroBlock insert after 16 hours. Images are 865 μm across. (B) Quantification of 10T1/2 cell transwell migration. Data are expressed as percentage relative to the control (HUVEC) migration of the same experimental batch. Medium represents no HUVECs in the outer well. LS294002 10 μM was added. n=4 each. *p<0.05 as compared to the control (HUVEC).
The effect of sGC inhibitor was next examined on 10T1/2 cell migration. […] Finally, the effect of PDE5 inhibitors on 10T1/2 cell migration was examined. […] L-NMMA abolished induction of 10T1/2 cell migration induced by Sildenafil. (Mann-Whitney U-test).
To elucidate the downstream signaling pathway of NO-dependent perivascular cell recruitment, the effect of PI3K inhibitor […] (10 μM) on the transwell 10T1/2 cell migration toward HUVECs was determined (FIG. 14A-B).

nNOS [1] = assay: Western blot of nNOS knockdown in cultured nNOS shRNA-transfected U87 cells; assay type: cell-based, human
Procedure: U87MG (American Type Culture Collection HTB-14) and GL261 (generous gift from Dr. G. Yancey Gillespie at University of Alabama) tumor cells were cultured in Dulbecco's Modified Eagle's Medium with 10% fetal bovine serum at 37° C. in a humidified 5% CO2 incubator. The following short-hairpin RNAs (shRNAs) for nNOS were designed using a commercial service program for small interfering RNA (siRNA) target finder (http://www.ambion.com/techlib/misc/siRNA_finder.html): nNOS-shRNA58, CAAAGAGATCGACACCATC (sense), […] (antisense); nNOSshRNA97, CACGCATGTCTGGAAAGGC (sense), […](antisense); nNOS-shRNA150, GGTCTATCCAATGTCCACA (sense), […] (antisense). The DNA oligonucleotides consist of a 19-nucleotide sense siRNA sequence linked to its reverse complementary antisense siRNA sequence by a short spacer (TTCAAGAGA).
Each DNA oligonucleotide was prepared with nucleotide overhangs with BamHI and HindIII restriction sites added to the 5′ and 3′ end of the DNA oligonucleotides and subcloned into the pSilencer 3.1 H-1-hygro (Ambion) that allows transcription of the shRNA. These expression vectors were stably transfected into U87MG cells using LipofectAMINE 2000 (Invitrogen) following the manufacturer's instruction.
The stably transfected cells were selected with 80 μg/ml of hygromycin B. The expression of nNOS protein in U87 tumor cells and tissues was determined by'Western blot analysis. […]
Equal amounts of 60 micrograms of protein per sample were separated on 7.5% SDS polyacrylamide gels, transferred onto polyvinylidene fluoride membrane (Millipore), incubated with primary antibodies followed by secondary antibodies (the same antibodies used in immunohistochemistry studies. See Immunohistochemistry methods below), and detected using enhanced chemiluminescence (GE Healthcare) by exposure on autoradiography films (Kodak) (Xu, L., et al. 2005 Cancer Res. 65, 5711-5719; Canneliet, P., et al. 1998 Nature 394, 485-490; Xu, L., et al. 2002 Journal of Biological Chemistry 277, 11368-11374 (2002); and Xu, L., et al. 2004 Clinical Cancer Research 10, 701-707). […]

nNOS [2] = assay: Western blot of nNOS knockdown in U87 tumors grown in cranial windows; assay type: in vivo; conditions: U87 tumors in cranial windows in Rag-1-/- mice
Procedure: The stably transfected cells were selected with 80 μg/ml of hygromycin B. The expression of nNOS protein in U87 tumor cells and tissues was determined by'Western blot analysis. Cultured U87MG cells washed with PBS and U87MG tumors homogenized by a tissue grinder were solubilized in 40 mM Tris-HCl, pH 6.8, 2% SDS, 10% glycerol, 1% β-mercaptoethanol, 0.01% bromophenol blue with one Complete Mini Protease Inhibitor Cocktail tablet (Roche Diagnostics) per 50 ml buffer.
Equal amounts of 60 micrograms of protein per sample were separated on 7.5% SDS polyacrylamide gels, transferred onto polyvinylidene fluoride membrane (Millipore), incubated with primary antibodies followed by secondary antibodies (the same antibodies used in immunohistochemistry studies. See Immunohistochemistry methods below), and detected using enhanced chemiluminescence (GE Healthcare) by exposure on autoradiography films (Kodak) (Xu, L., et al. 2005 Cancer Res. 65, 5711-5719; Canneliet, P., et al. 1998 Nature 394, 485-490; Xu, L., et al. 2002 Journal of Biological Chemistry 277, 11368-11374 (2002); and Xu, L., et al. 2004 Clinical Cancer Research 10, 701-707).
as §2, with “39-44).” for “39-44). All animal procedures were carried oat following the Public Health Service Policy on Humane Care of Laboratory Animals and approved by the Institutional Animal Care and Use Committee of Massachusetts General Hospital.”
U87 with nNOS shRNA (shRNA58, shRNA97, and shRNA150) were grown in cranial windows in Rag-1^−/− mice. Expression of nNOS in these tumors was determined by Western blot analysis. […]

Compound: CC(=O)O.CNC(=N)NCCC[C@H](N)C(=O)O [L-NMMA, NG-Monomethyl-L-arginine monoacetate]
- DAF-associated fluorescence (NO production) (U87 gliomas): abolished
- vessel density (U87MG tumors): decreased
- vessel diameter (U87MG tumors): increased
- induction of 10T1/2 cell migration induced by Sildenafil (10T1/2 cells; Sildenafil+L-NMMA): abolished

Compound: O=c1cc(N2CCOCC2)oc2c(-c3ccccc3)cccc12 [LY291002]
- transwell 10T1/2 cell migration toward HUVECs (10T1/2 cells; 10 μM, 16 hours): significantly inhibited

Compound: O=c1onc2cnc3ccccc3n12 [ODQ]
- 10T1/2 cell migration to HUVECs (10T1/2 cells; 10μM): significantly reduced

Compound: CCCc1nn(C)c2c(=O)[nH]c(-c3cc(S(=O)(=O)N4CCN(C)CC4)ccc3OCC)nc12 [Sildenafil]
- 10T1/2 cell migration (10T1/2 cells; 40 nM): significantly enhanced

Compound: shRNA97: short-hairpin RNA for nNOS, CACGCATGTCTGGAAAGGC (sense), GCCTTTCCAGACATGCGTGTT (antisense), in pSilencer 3.1 H-1-hygro
- Knockdown efficiency of nNOS in vitro (nNOS [1]): 98%
- Knockdown efficiency of nNOS in vivo (nNOS [2]): 67%

From patent publication US20130195926A1, “MODULATION OF NITRIC OXIDE SIGNALING TO NORMALIZE TUMOR VASCULATURE” (The General Hospital Corporation, priority 2007, published 2013)
